Converted amounts (≈) assume the structure as drawn.
Key:
H9 = assay: Inhibition of uninfected H9 lymphocytic cell growth; type: functional, cell-based; conditions: Homo sapiens
[1] = tested on: Human immunodeficiency virus 1; assay: Inhibition of HIV-1 replication in H9 (human lymphoma) cells; No suppression.; type: functional, organism-based
[2] = Therapeutic index - IC50/EC50.; conditions: read-out: Therapeutic index
[3] = tested on: Human immunodeficiency virus 1; assay: Inhibition of HIV-1 replication in H9 (human lymphoma) cells.; type: functional, organism-based; conditions: Human immunodeficiency virus 1, H9

Compound	IC50 (H9) [µg/mL]	EC50 [1]	selectivity ratio [2]	EC50 [3] [µg/mL]
COc1cc(C(=O)O[C@@H]2Cc3c(O)cc(O)cc3O[C@@H]2c2ccc(O)c(O)c2)cc(O)c1O	50 (≈ 110 µM)	No effect		
O=C(O[C@@H]1[C@@H](c2c(O)cc3c(c2O)C[C@@H](OC(=O)c2cc(O)c(O)c(O)c2)[C@@H](c2cc(O)c(O)c(O)c2)O3)c2c(O)cc(O)cc2O[C@@H]1c1cc(O)c(O)c(O)c1)c1cc(O)c(O)c(O)c1	30 (≈ 32.8 µM)		2	15 (≈ 16.4 µM)
COc1c(O)cc(C(=O)O[C@@H]2Cc3c(O)cc(O)cc3O[C@@H]2c2ccc(O)c(O)c2)cc1O	50 (≈ 110 µM)	No effect		
O=C(Oc1c(O)cc([C@H]2Oc3cc(O)cc(O)c3C[C@H]2OC(=O)c2cc(O)c(O)c(O)c2)cc1O)c1cc(O)c(O)c(O)c1	40 (≈ 65.5 µM)		6.2	6.5 (≈ 10.6 µM)
O=C(O[C@@H]1Cc2c(O)cc(O)cc2O[C@@H]1c1cc(O)c(O)cc1-c1c([C@H]2Oc3cc(O)cc(O)c3C[C@H]2OC(=O)c2cc(O)c(O)c(O)c2)cc(O)c(O)c1O)c1cc(O)c(O)c(O)c1	50 (≈ 55.6 µM)	No effect		
O=C(O[C@@H]1Cc2c(O)cc(O)cc2O[C@@H]1c1ccc(O)cc1)c1cc(O)c(O)c(O)c1	50 (≈ 117 µM)	Not Active		
O=C(O[C@@H]1Cc2c(O)cc(O)cc2O[C@@H]1c1cc(O)c(O)c2c1C1C([C@H]3Oc4cc(O)cc(O)c4C[C@H]3O)=CC(=O)C1(O)O2)c1cc(O)c(O)c(O)c1 (stereo partly drawn)	48 (≈ 65.5 µM)		1.9	25 (≈ 34.1 µM)
Oc1cc(O)c2c(c1)O[C@H](c1cc(O)c(O)c(O)c1)[C@H](O)[C@H]2c1c(O)cc(O)c2c1O[C@H](c1cc(O)c(O)c(O)c1)[C@H](O)C2	18 (≈ 29.5 µM)		1.2	15 (≈ 24.6 µM)
O=C(O[C@@H]1Cc2c(O)cc(O)c([C@H]3c4c(O)cc(O)cc4O[C@H](c4cc(O)c(O)c(O)c4)[C@@H]3O)c2O[C@@H]1c1cc(O)c(O)c(O)c1)c1cc(O)c(O)c(O)c1	28 (≈ 36.7 µM)		1.9	15 (≈ 19.7 µM)
Oc1cc(O)c2c(c1)O[C@H](c1cc(O)c(O)c(O)c1-c1c([C@H]3Oc4cc(O)cc(O)c4C[C@H]3O)cc(O)c(O)c1O)[C@H](O)C2	9.5 (≈ 15.6 µM)		1.6	6 (≈ 9.83 µM)
O=C(/C=C/c1ccc(O)cc1)O[C@@H]1Cc2c(O)cc(O)cc2O[C@@H]1c1cc(O)c(O)c(O)c1	35 (≈ 77.4 µM)		4.4	8 (≈ 17.7 µM)
O=C(O[C@H](Cc1c(O)cc(O)cc1O)[C@H](c1cc(O)c(O)c(O)c1)c1c(O)cc(O)c2c1O[C@H](c1cc(O)c(O)c(O)c1)[C@H](OC(=O)c1cc(O)c(O)c(O)c1)C2)c1cc(O)c(O)c(O)c1	9 (≈ 9.82 µM)	No effect		
O=C(O[C@@H]1Cc2c(O)cc(O)c([C@@H]3c4c(O)cc(O)cc4O[C@H](c4cc(O)c(O)c(O)c4)[C@H]3O)c2O[C@@H]1c1cc(O)c(O)c(O)c1)c1cc(O)c(O)c(O)c1	9 (≈ 11.8 µM)	No effect		
Oc1cc(O)c2c(c1)O[C@H](c1cc(O)c(O)c(O)c1)[C@@H](O)[C@@H]2c1c(O)cc(O)c2c1O[C@H](c1cc(O)c(O)c(O)c1)[C@H](O)C2	18 (≈ 29.5 µM)		1.5	12 (≈ 19.7 µM)
O=C(O[C@@H]1Cc2c(O)cc(O)cc2O[C@@H]1c1cc(O)c(=O)c2c(O)c(O)c(O)cc2c1)c1cc(O)c(O)c(O)c1	25 (≈ 45.3 µM)		4.5	5.5 (≈ 9.96 µM)
O=C(O[C@H](Cc1c(O)cc(O)cc1O)[C@@H](c1cc(O)c(O)c(O)c1)c1c(O)cc(O)c2c1O[C@H](c1cc(O)c(O)c(O)c1)[C@H](OC(=O)c1cc(O)c(O)c(O)c1)C2)c1cc(O)c(O)c(O)c1	8 (≈ 8.73 µM)	No effect		
O=C(O[C@H]1Cc2c(O)cc3c(c2O[C@H]1c1cc(O)c(O)c(O)c1)[C@H]1c2c(O)cc(O)cc2O[C@@](c2cc(O)c(O)c(O)c2)(O3)[C@@H]1O)c1cc(O)c(O)c(O)c1	40 (≈ 52.6 µM)	No effect		
O=C(O[C@@H]1Cc2c(O)cc(O)c(Cc3c(O)cc(O)c4c3O[C@H](c3cc(O)c(O)c(O)c3)[C@H](OC(=O)c3cc(O)c(O)c(O)c3)C4)c2O[C@@H]1c1cc(O)c(O)c(O)c1)c1cc(O)c(O)c(O)c1	45 (≈ 48.5 µM)	No effect		
O=C(Oc1cc([C@H]2Oc3cc(O)cc(O)c3C[C@H]2OC(=O)c2cc(O)c(O)c(O)c2)cc(O)c1O)c1cc(O)c(O)c(O)c1	40 (≈ 65.5 µM)		6.2	6.5 (≈ 10.6 µM)

Compound	IC50 (H9) [µg/mL]	EC50 [1]	selectivity ratio [2]	EC50 [3] [µg/mL]
O=C(O[C@@H]1Cc2c(O)cc3c(c2O[C@@H]1c1cc(O)c(O)c(O)c1)C1(O)C(=O)O[C@H]([C@@H](O)CO)C1(O)O3)c1cc(O)c(O)c(O)c1 (stereo partly drawn)	40 (≈ 63.2 µM)		4	10 (≈ 15.8 µM)
O=C(O[C@@H]1Cc2c(cc(O)c(Cc3c(O)cc(O)c4c3O[C@H](c3cc(O)c(O)c(O)c3)[C@H](OC(=O)c3cc(O)c(O)c(O)c3)C4)c2O)O[C@@H]1c1cc(O)c(O)c(O)c1)c1cc(O)c(O)c(O)c1	40 (≈ 43.1 µM)		1.6	25 (≈ 26.9 µM)
O=C1O[C@H]([C@@H](O)CO)C2(O)Oc3cc(O)c4c(c3C12O)O[C@H](c1cc(O)c(O)c(O)c1)[C@H](O)C4 (stereo partly drawn)	38 (≈ 79.1 µM)		9.5	4 (≈ 8.33 µM)
O=C(O[C@@H]1[C@@H](c2c(O)cc(O)c3c2O[C@H](c2cc(O)c(O)c(O)c2)[C@H](OC(=O)c2cc(O)c(O)c(O)c2)C3)c2c(O)cc(O)cc2O[C@@H]1c1cc(O)c(O)c(O)c1)c1cc(O)c(O)c(O)c1	40 (≈ 43.7 µM)	No effect		
O=C(O[C@@H]1Cc2c(O)cc(O)cc2O[C@@H]1c1cc(O)c(O)c2c(=O)c(O)cc([C@H]3Oc4cc(O)cc(O)c4C[C@H]3O)cc12)c1cc(O)c(O)c(O)c1	48 (≈ 67 µM)	No effect		
O=C(O[C@H](Cc1c(O)cc(O)cc1O)[C@@H](c1cc(O)c(O)c(O)c1)c1c(O)cc2c(c1O)C[C@@H](OC(=O)c1cc(O)c(O)c(O)c1)[C@@H](c1cc(O)c(O)c(O)c1)O2)c1cc(O)c(O)c(O)c1	35 (≈ 38.2 µM)		2.5	14 (≈ 15.3 µM)
O=C(O[C@@H]1Cc2c(cc(O)c(Cc3c(O)cc4c(c3O)C[C@@H](OC(=O)c3cc(O)c(O)c(O)c3)[C@@H](c3cc(O)c(O)c(O)c3)O4)c2O)O[C@@H]1c1cc(O)c(O)c(O)c1)c1cc(O)c(O)c(O)c1	35 (≈ 37.7 µM)		3.9	9 (≈ 9.69 µM)
O=C(O[C@@H]1Cc2c(O)cc(O)cc2OC1c1cc(O)c(O)c(O)c1-c1c(C2Oc3cc(O)cc(O)c3C[C@H]2OC(=O)c2cc(O)c(O)c(O)c2)cc(O)c(O)c1O)c1cc(O)c(O)c(O)c1 (single isomer, unassigned)	40 (≈ 43.7 µM)		5	8 (≈ 8.75 µM)
Oc1cc(O)c2c(c1)OC(c1cc(O)c(O)c(O)c1-c1c(C3Oc4cc(O)cc(O)c4C[C@H]3O)cc(O)c(O)c1O)[C@H](O)C2 (single isomer, unassigned)	20 (≈ 32.8 µM)		2	10 (≈ 16.4 µM)
O=C(O[C@@H]1Cc2c(O)cc(O)cc2O[C@@H]1c1cc(O)c(O)c(O)c1-c1c([C@H]2Oc3cc(O)cc(O)c3C[C@H]2O)cc(O)c(O)c1O)c1cc(O)c(O)c(O)c1 [2',2'-BISEPIGALLOCATECHIN MONOGALLATE]	9.5 (≈ 12.5 µM)	No effect		
O=C1c2c(O)cc(O)cc2O[C@H](c2ccc(O)c(O)c2)[C@H]1O [(+)-TAXIFOLIN]	9.8 (≈ 32.2 µM)		1	9.8 (≈ 32.2 µM)
Oc1ccc([C@H]2Oc3cc(O)cc(O)c3C[C@H]2O)cc1 [EPIAFZELECHIN (2R,3R)(-)]	100 (≈ 365 µM)		1.4	70 (≈ 255 µM)
O=C(O[C@@H]1Cc2c(O)cc(O)cc2O[C@@H]1c1ccc(O)c(O)c1)c1cc(O)c(O)c(O)c1 [EPICATECHIN GALLATE]	> 10	No effect		
O=C(Oc1cc(O)cc2c1C[C@@H](OC(=O)c1cc(O)c(O)c(O)c1)[C@@H](c1cc(O)c(O)c(O)c1)O2)c1cc(O)c(O)c(O)c1 [EPIGALLOCATECHIN 3,5-DIGALLATE]	20 (≈ 32.8 µM)		3.6	5.5 (≈ 9.01 µM)
Oc1cc(O)c2c(c1)O[C@H](c1cc(O)c(O)c(O)c1)[C@H](O)C2 [EPIGALLOCATECHIN]	1.8 (≈ 5.88 µM)	No effect		
O=C(O[C@@H]1Cc2c(O)cc(O)cc2O[C@@H]1c1cc(O)c(O)c(O)c1)c1cc(O)c(O)c(O)c1 [EPIGALOCATECHIN GALLATE]	8 (≈ 17.5 µM)		1.1	7 (≈ 15.3 µM)
O=C(O[C@@H]1Cc2c(O)cc(O)cc2O[C@@H]1c1cc(O)c(=O)c2c(O)c(O)cc([C@H]3Oc4cc(O)cc(O)c4C[C@H]3OC(=O)c3cc(O)c(O)c(O)c3)c2c1)c1cc(O)c(O)c(O)c1 [THEAFLAVIN DIGALLATE]	48 (≈ 55.3 µM)	No effect		
O=c1c(O)cc([C@H]2Oc3cc(O)cc(O)c3C[C@H]2O)cc2c([C@H]3Oc4cc(O)cc(O)c4C[C@H]3O)cc(O)c(O)c12 [THEAFLAVIN]	48 (≈ 85 µM)	No effect		
O=C(O[C@@H]1Cc2c(O)cc(O)cc2O[C@@H]1c1cc(O)c(O)c(O)c1-c1c([C@H]2Oc3cc(O)cc(O)c3C[C@H]2OC(=O)c2cc(O)c(O)c(O)c2)cc(O)c(O)c1O)c1cc(O)c(O)c(O)c1 [THEASINENSIN A]	18 (≈ 19.7 µM)		0.95	19 (≈ 20.8 µM)
